Results taken from BindingDB's records for doi:10.1021/jm9707232 (Sapienza University of Rome, 1998).

Target: Integrase (Human immunodeficiency virus 1, UniProt Q7ZJM1)
Assay: Compound concentration required to reduce HIV-1 Integrase 3'-processing activity by 50%

Sequence of Integrase (Q7ZJM1 whole entry): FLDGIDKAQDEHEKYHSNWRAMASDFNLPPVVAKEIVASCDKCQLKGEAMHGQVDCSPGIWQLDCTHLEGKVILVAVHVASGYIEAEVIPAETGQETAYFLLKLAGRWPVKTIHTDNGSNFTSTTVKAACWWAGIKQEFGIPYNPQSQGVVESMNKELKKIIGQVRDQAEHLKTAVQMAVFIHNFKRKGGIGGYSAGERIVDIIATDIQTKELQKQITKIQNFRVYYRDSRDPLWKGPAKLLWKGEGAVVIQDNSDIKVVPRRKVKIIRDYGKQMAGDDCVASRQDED

SMILES	IC50
O=C(C=Cc1ccccc1)CC(=O)C=Cc1ccccc1 [5-Hydroxy-1,7-diphenylhepta-1,4,6-trien-3-one]	> 100 µM
COc1ccc(C=CC(=O)CC(=O)C=Cc2ccc(OC)c(OC)c2)cc1OC [(1E,4Z,6E)-1,7-bis(3,4-dimethoxyphenyl)-5-hydroxyhepta-1,4,6-trien-3-one]	> 100 µM
